The species named for test [1] is Homo sapiens. To be noted: filed as agonist, dose 5.0 µM.
Description: Agonist activity at Kv7.2 W236L mutant (unknown origin) assessed as shifting of voltage dependent activation to more negative potentials at 5 uM by SyncroPatch assay
Test [2] concerns the target T1, Potassium voltage-gated channel subfamily KQT member 2 (Homo sapiens, UniProt O43526). The settings on record: filed as agonist, dose 5.0 µM.
Description: Agonist activity at Kv7.2 (unknown origin) assessed as shifting of voltage dependent activation to more negative potentials at 5 uM by SyncroPatch assay
In test [3] the target is Potassium voltage-gated channel subfamily KQT member 5 (Homo sapiens, UniProt Q9NR82). In words: Agonist activity at Kv7.5 (unknown origin) expressed in CHO cells co-expressing GFP. It is filed as cell-based.
For test [4], the target named is T2, Potassium voltage-gated channel subfamily KQT member 4 (Homo sapiens, UniProt P56696).
T2 sequence (P56696 whole entry): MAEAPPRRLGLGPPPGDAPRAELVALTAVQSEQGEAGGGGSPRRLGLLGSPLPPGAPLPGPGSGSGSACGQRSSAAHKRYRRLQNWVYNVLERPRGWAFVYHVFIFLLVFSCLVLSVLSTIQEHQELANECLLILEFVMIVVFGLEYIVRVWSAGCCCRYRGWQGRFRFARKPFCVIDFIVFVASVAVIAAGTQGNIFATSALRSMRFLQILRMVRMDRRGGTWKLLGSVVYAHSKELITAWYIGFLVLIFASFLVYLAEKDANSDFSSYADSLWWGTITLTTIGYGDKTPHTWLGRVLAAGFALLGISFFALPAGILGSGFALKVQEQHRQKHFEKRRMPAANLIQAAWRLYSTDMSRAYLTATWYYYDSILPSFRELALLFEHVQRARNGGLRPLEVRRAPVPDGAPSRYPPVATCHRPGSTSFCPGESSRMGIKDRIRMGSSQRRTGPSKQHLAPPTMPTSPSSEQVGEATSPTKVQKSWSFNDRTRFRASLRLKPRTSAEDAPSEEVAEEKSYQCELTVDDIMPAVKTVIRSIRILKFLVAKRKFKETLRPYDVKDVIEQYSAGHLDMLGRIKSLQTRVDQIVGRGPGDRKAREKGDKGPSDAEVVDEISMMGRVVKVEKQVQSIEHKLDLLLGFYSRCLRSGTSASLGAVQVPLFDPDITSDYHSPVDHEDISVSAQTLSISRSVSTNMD
In words: Agonist activity at Kv7.4 (unknown origin) expressed in CHO cells co-expressing GFP. It is filed as cell-based.

Test [5] deals with Voltage-gated potassium channel, KQT; KCNQ2(Kv7.2)/KCNQ3(Kv7.3) (Homo sapiens, UniProt O43525+O43526). Description: Agonist activity at Kv7.2/3 (unknown origin) expressed in CHO cells co-expressing GFP. It is filed as cell-based.
Test [6] addresses T1, Potassium voltage-gated channel subfamily KQT member 2. In words: Agonist activity at Kv7.2 (unknown origin) assessed as shifting of voltage dependent activation to more negative potentials by SyncroPatch assay. (In patch-clamp work, channel activity is measured electrically.)
For test [7], the species on record is Homo sapiens. In words: Selectivity index, ratio of EC50 for agonist activity at Kv7.4 (unknown origin) expressed in CHO cells co-expressing GFP to EC50 for agonist activity at Kv7.2/3 (unknown origin) expressed in CHO cells co-expressing GFP. It is filed as cell-based.
The species named for test [8] is Homo sapiens. Description: Selectivity index, ratio of EC50 for agonist activity at Kv7.5 (unknown origin) expressed in CHO cells co-expressing GFP to EC50 for agonist activity at Kv7.2/3 (unknown origin) expressed in CHO cells co-expressing GFP. It is filed as cell-based.

One may read the EC50 as the concentration at which the effect is half-maximal.

Potassium voltage-gated channel subfamily KQT member 5, sequence (Q9NR82 whole entry): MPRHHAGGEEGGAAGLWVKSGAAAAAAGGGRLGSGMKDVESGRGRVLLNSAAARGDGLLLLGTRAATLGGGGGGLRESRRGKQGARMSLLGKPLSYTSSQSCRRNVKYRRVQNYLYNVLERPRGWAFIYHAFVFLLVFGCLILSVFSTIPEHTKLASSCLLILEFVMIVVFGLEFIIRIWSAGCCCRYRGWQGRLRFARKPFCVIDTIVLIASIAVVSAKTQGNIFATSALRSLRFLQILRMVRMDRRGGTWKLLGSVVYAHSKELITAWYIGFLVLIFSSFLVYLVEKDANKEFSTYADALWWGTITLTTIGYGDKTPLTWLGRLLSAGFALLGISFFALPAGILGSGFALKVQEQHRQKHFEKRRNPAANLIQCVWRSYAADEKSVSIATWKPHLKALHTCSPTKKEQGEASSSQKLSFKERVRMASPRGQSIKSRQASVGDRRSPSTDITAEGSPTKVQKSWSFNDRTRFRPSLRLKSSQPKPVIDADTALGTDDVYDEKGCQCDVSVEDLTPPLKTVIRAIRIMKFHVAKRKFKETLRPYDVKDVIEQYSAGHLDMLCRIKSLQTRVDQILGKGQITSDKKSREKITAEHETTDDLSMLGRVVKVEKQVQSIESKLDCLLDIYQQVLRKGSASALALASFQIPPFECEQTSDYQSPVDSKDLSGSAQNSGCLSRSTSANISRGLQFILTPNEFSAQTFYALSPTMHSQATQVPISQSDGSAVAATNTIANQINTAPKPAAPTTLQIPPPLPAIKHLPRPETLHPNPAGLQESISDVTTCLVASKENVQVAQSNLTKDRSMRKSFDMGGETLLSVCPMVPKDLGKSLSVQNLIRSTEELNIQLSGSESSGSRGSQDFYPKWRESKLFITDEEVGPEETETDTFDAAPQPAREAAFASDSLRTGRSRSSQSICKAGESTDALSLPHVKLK
T1 sequence (O43526 whole entry): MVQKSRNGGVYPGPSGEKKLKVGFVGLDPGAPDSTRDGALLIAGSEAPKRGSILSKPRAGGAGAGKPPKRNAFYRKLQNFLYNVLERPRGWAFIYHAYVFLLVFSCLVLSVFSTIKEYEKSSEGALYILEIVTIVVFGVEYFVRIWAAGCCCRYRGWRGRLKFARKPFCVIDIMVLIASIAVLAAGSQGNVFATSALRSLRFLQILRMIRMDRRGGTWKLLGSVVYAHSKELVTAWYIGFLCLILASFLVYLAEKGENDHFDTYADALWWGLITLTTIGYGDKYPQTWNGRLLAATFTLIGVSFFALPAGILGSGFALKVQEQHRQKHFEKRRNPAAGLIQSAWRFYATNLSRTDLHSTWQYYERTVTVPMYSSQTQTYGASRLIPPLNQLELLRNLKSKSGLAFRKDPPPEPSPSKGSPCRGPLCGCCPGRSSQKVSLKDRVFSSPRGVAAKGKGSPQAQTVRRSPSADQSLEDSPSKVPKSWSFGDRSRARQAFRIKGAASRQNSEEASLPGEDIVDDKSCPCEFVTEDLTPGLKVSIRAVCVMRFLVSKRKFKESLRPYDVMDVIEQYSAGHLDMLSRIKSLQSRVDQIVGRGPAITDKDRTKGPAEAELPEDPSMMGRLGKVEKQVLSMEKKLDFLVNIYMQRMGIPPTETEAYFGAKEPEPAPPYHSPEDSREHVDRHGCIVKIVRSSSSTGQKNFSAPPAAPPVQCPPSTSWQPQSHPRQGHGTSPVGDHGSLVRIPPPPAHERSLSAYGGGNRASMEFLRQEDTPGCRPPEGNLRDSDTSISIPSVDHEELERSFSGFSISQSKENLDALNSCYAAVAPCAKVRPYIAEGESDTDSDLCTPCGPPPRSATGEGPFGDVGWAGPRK
Voltage-gated potassium channel, KQT; KCNQ2(Kv7.2)/KCNQ3(Kv7.3), sequence (O43526 whole entry): as above
Voltage-gated potassium channel, KQT; KCNQ2(Kv7.2)/KCNQ3(Kv7.3), sequence (O43525 whole entry): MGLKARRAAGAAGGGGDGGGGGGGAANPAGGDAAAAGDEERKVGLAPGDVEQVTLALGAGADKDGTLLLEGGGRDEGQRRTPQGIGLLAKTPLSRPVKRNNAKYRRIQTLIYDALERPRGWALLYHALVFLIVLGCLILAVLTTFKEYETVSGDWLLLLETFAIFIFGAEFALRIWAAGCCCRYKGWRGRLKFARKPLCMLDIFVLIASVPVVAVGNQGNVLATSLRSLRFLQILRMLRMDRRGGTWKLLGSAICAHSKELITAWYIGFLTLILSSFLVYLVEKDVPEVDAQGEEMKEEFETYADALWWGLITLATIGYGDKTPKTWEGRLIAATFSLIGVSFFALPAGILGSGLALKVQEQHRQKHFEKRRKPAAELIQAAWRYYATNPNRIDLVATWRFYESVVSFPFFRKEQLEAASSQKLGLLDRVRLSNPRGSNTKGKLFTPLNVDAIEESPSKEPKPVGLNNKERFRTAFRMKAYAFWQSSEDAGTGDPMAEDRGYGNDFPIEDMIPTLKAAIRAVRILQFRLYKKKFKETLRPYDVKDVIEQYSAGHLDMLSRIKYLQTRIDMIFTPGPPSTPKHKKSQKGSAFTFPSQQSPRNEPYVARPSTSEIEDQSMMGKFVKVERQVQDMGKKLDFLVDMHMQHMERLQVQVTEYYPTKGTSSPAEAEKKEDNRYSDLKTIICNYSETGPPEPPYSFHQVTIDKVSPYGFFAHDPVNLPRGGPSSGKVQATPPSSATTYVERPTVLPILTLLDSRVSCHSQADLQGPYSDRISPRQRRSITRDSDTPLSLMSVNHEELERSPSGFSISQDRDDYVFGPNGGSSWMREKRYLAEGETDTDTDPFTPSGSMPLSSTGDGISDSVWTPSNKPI

On to `COc1ccc2c(c1)[C@@H](NC(C)=O)[C@H](C)[C@@H](c1ccccc1)N2C(=O)Nc1ccc(C(F)(F)F)cc1`, for which the V1/2 is -2.7 mV in the test filed under Homo sapiens [1] and 10 mV in test [2].
As to `CCOC(=O)Nc1cc(F)c2c(c1N)S(=O)(=O)CC(c1ccccc1)N2` (stereo unspecified), the V1/2 in the test filed under Homo sapiens [1] stood at 2.8 mV; in test [2], 4.4 mV.
The matching figures for `O=C(Cc1ccc(OC(F)(F)F)cc1)Nc1ccc2[nH]c(-c3ccc(C(F)(F)F)cc3)cc2c1`: 3.9 mV and -8.9 mV.
With `O=C(Nc1ccc2[nH]c(-c3ccc(C(F)(F)F)cc3)cc2c1)OC1CC1`, the V1/2 in the test listed under Homo sapiens [1] was found to be 4.7 mV; in test [2], 6.2 mV.
For the compound `CCOC(=O)Nc1ccc(NCc2ccc(C(F)(F)F)nc2)c(F)c1N`, the EC50 in test [3] was determined as 0.54 µM; in test [4] it was 0.66 µM; in test [5], 3.36 µM.
Turning to `CCOC(=O)Nc1cc(F)c(NCc2ccc(C(F)(F)F)cc2)c(F)c1N`, the EC50 in test [3] stood at 1.06 µM; in test [4], 0.087 µM.
`COc1ccc2c(c1)[C@@H](NC(=O)OCc1ccccc1)[C@H](C)[C@@H](c1ccccc1)N2C(=O)NC(C)C`: the V1/2 in the test listed under Homo sapiens [1] came out at 4.9 mV; in test [2], 6.2 mV.
As to `Nc1c(NC(=O)OC2CC2)ccc(NCc2ccc(C(F)(F)F)cc2)c1F`, the V1/2 was -9.3 mV in the test filed under Homo sapiens [1] and -44.9 mV in test [2]. Besides, the concentration giving a half-maximal response (EC50) in test [3] worked out at 3.78 µM; in test [6], 3.03 µM; in test [4] it was 0.91 µM; in test [5], 0.018 µM. Besides, the Ratio EC50 in the test listed under Homo sapiens [7] and in the test filed under Homo sapiens [8] was 50 each time.
For `CCOC(=O)Nc1ccc(NCc2ccc(C(F)(F)F)cc2)c(F)c1N`, the V1/2 in the test filed under Homo sapiens [1] is 1.9 mV; in the test filed under Homo sapiens [1] (tested as the 2H-labelled form) it was -4.4 mV; in test [2], -48.1 mV; in test [2] (tested as the 2H-labelled form) it was -45.2 mV.
Consider `COc1ccc(CNc2cc3ccccc3c(=O)[nH]2)cc1`, for which the V1/2 is 1.3 mV in the test listed under Homo sapiens [1] and -3 mV in test [2].
The matching figures for `CC(C)(C)CC(=O)Nc1ccc2[nH]c(-c3ccc(C(F)(F)F)cc3)cc2c1`: 3.2 mV and -4.1 mV.
On to `[2H]c1cc(NC(=O)OCC)c(N)c(F)c1NCc1ccc(C(F)(F)F)cc1`, for which the EC50 in test [6] stood at 0.98 µM.
Regarding `CCOC(=O)Nc1ccc(NCc2ccc(F)cc2)nc1N`, the V1/2 in the test listed under Homo sapiens [1] is 1.2 mV; in test [2], -23.8 mV.
Consider `CCOC(=O)Nc1ccc(NCc2ccc(F)cc2)cc1N` [EZOGABINE], for which the V1/2 was 4.2 mV in the test listed under Homo sapiens [1] and -34.3 mV in test [2]. Moreover, in test [6], the concentration giving a half-maximal response (EC50) came out at 4.21 µM.
Take `Nc1c(F)c(NCc2ncc(C(F)(F)F)cc2F)c(F)c(F)c1NC(=O)OC1CC1`: the results for the EC50 in test [3] and in test [4] were 3.78 µM and 0.32 µM, respectively.
On to `CC(C)OC(=O)Nc1ccc2[nH]c(-c3ccc(C(F)(F)F)cc3)cc2c1`, for which the V1/2 is -0.31 mV in the test listed under Homo sapiens [1] and -3.2 mV in test [2].
The matching figures for `CCOC(=O)Nc1ccc2[nH]c(-c3ccc(C(F)(F)F)cc3)cc2c1`: -6 mV and -4.8 mV.
On to `CCOC(=O)Nc1ccc2[nH]c(-c3ccc(F)cc3)cc2c1`, for which the V1/2 was 2.5 mV in the test filed under Homo sapiens [1] and -0.66 mV in test [2].
As to `COc1ccc2c(c1)[C@@H](NC(C)=O)[C@H](C)[C@@H](c1ccccc1)N2C(C)=O`, the values for the V1/2 (in the test listed under Homo sapiens [1]; in test [2]) were 0.26 mV and 2.5 mV, respectively.
The matching figures for `CC[C@H]1Nc2ccc(OC)cc2[C@@H](NS(C)(=O)=O)[C@@H]1C`: 2.8 mV and -3 mV.
`O=C(Cc1cc(F)cc(F)c1)Nc1ccc2[nH]c(-c3ccc(C(F)(F)F)cc3)cc2c1`: the V1/2 in the test listed under Homo sapiens [1] was 2.4 mV; in test [2] it was -1.1 mV.
